Data on six compounds can be found in US6455506B1, “Lyxofuranosyl benzimidazoles as antiviral agents” (SmithKline Beecham Corporation, priority 1997, dated 2002).

Broadly, the melting point is the temperature of the solid-liquid transition.

Data set [1] deals with HCMV. The settings on record: background, literature report; cited from earlier work.
The test system of the next data set is Hepatitis B Virus (HBV). Kind of data set: Activity against Hepatitis B Virus (Jansen et al.). The class given is cell-based. The conditions noted are these: two separate tests. The method, then:
The activity of compounds against Hepatitis B Virus (HBV) was assessed as described in Jansen, R., et al., Antimicrobial Agents and Chemotherapy, Vol. 37, No. 3, pp. 441-447, 1993.

The next data set deals with HCMV Strain AD169. Kind of data set: HCMV plaque reduction assay, strain AD169. Type of data set: cell-based, Human cytomegalovirus. The settings on record: Human betaherpesvirus 5, Table 3, read-out: HCMV Strain AD169 plaque 50% Inhibitory Concentration (IC50). The procedure: (§1) HFF cells in 24-well cluster dishes were infected with approximately 100 p.f.u. of HCMV per cm^2 cell sheet using the procedures detailed above. Following virus adsorption, compounds dissolved in growth medium were added to duplicate wells in four to eight selected concentrations. After incubation at 37° C. for 7 to 10 days, cell sheets were fixed, stained with crystal violet and microscopic plaques enumerated as described above.
(§2) Dose-response relationships were constructed by linearly regressing the percent inhibition of parameters derived in the preceding sections against log drug concentrations. Fifty-percent inhibitory concentrations (IC50's) or IC90's were calculated from the regression lines. Samples containing positive controls (acyclovir for HSV-1, ganciclovir for HCMV, and 2-acetylpyridine thiosemicarbazone for cytotoxicity) were used in all assays.
For orientation: In a plaque reduction assay, fewer plaques than in the control indicate reduced infectivity or spread.

A short description of data set [2]: Inhibition of KB cell growth (crystal violet). The settings on record: human, KB cells; KB cell growth, 48 hours, quadruplicate; read-out: Cytotoxicity growth (IC50). The class given is cell-based. The method, then: (§3) Two different assays were used for routine cytotoxicity testing. (i) Cytotoxicity produced in stationary HFF cells was determined by microscopic inspection of cells not affected by the virus used in plaque assays (see Turk, S. R.; Shipman, C., Jr.; Nassiri, M. R.; Genzingler, G.; Krawczyk, S. H.; Townsend, L. B.; Drach, J. C. Pyrrolo[2,3-]pyrimidine Nucleosides as Inhibitors of Human Cytomegalovirus, Antimicrob. Agents Chemother. 1987, 31, 544-550). (ii) The effect of compounds during two population doublings of KB cells was determined by crystal violet staining and spectrophotometric quantitation of dye eluted from stained cells as described earlier (see Prichard, M. N.; Prichard, L. E., Baguley, W. A.; Nassiri, M. R.; Shipman, C., Jr. Three-Dimensional Analysis of the Synergistic Cytotoxicity of Ganciclovir and Zidovudine. Antiviral Res. 1991, 35, 1060-1065). Briefly, 96-well cluster dishes were planted with KB cells at 3000-5000 cells per well. After overnight incubation at 37° C., test compound was added in quadruplicate at six to eight concentrations. Plates were incubated at 37° C. for 48 hours in a CO2 incubator, rinsed, fixed with 95% ethanol, and stained with 0.1% crystal violet. Acidified ethanol was added and plates read at 570 nm in a spectrophotometer designed to read 96-well ELISA assay plates.
as §2

Data set [3] relates to HCMV. As to the kind of experiment: HCMV plaque reduction assay (Towne strain) in HFF cells. Type of data set: cell-based, Human cytomegalovirus. The method, then: (§4) Stock HCMV was prepared by infecting HFF cells at a multiplicity of infection (m.o.i.) of <0.01 plaque-forming units (p.f.u.) per cell as detailed previously (see Turk, S. R.; Shipman, C., Jr.; Nassiri, M. R.; Genzingler, G.; Krawczyk, S. H.; Townsend, L. B.; Drach, J. C. Pyrrolo[2,3-d]pyrimidine Nucleosides as Inhibitors of Human Cytomegalovirus, Antimicrob. Agents Chemother. 1987, 31, 544-550). High titer HSV-1 stocks were prepared by infecting KB cells (ATCC) at an m.o.i. of <0.1 also as detailed previously (see Turk, S. R.; Shipman, C., Jr.; Nassiri, M. R.; Genzingler, G.; Krawczyk, S. H.; Townsend, L. B.; Drach, J. C. Pyrrolo[2,3-d]pyrimidine Nucleosides as Inhibitors of Human Cytomegalovirus, Antimicrob. Agents Chemother. 1987, 31, 544-550). Virus titers were determined using monolayer cultures of HFF cells for HCMV and monolayer cultures of BSC-1 cells for HSV-1 as described earlier (see Prichard, M. N.; Turk, S. R.; Coleman, L. A.; Engelhardt, S. L.; Shipman, C., Jr.; Drach, J. C. A Microtiter Virus Yield Reduction Assay for the Evaluation of Antiviral Compounds Against Human Cytomegalovirus and Herpes Simplex Virus. J. Virol. Methods 1990, 28, 101-106). Briefly, HFF or BSC-1 cells were planted as described above in 96-well cluster dishes and incubated overnight at 37° C. The next day cultures were inoculated with HCMV or HSV-1 and serially diluted 1:3 across the remaining eleven columns of the 96-well plate. After virus adsorption the inoculum was replaced with fresh medium and cultures were incubated for seven days for HCMV, two or three days for HSV-1. Plaques were enumerated under 20-fold magnification in wells having the dilution which gave 5 to 20 plaques per well. Virus titers were calculated according to the following formula: Titer (p.f.u./mL)=number of plaques×5×3^n; where n represents the nth dilution of the virus used to infect the well in which plaques were enumerated.
as §1, §2

Data set [4] deals with HCMV. As to the kind of experiment: HCMV yield reduction assay (Towne strain) in HFF cells. Type of data set: cell-based, Human cytomegalovirus. The procedure:
as §4
HFF cells were planted as described above in 96-well cluster dishes, incubated overnight, medium removed and the cultures were inoculated with HCMV at a m.o.i. of 0.5 to 1 p.f.u. per cell as reported elsewhere (see Prichard, M. N.; Turk, S. R.; Coleman, L. A.; Engelhardt, S. L.; Shipman, C., Jr.; Drach, J. C. A Microtiter Virus Yield Reduction Assay for the Evaluation of Antiviral Compounds Against Human Cytomegalovirus and Herpes Simplex Virus. J. Virol. Methods 1990, 28, 101-106). After virus adsorption, inoculum was replaced with 0.2 mL of fresh medium containing test compounds. The first row of 12 wells was left undisturbed and served as virus controls. Each well in the second row received an additional 0.1 mL of medium with test compound at three times the desired final concentration. The contents of the 12 wells were mixed by repeated pipetting and then serially diluted 1:3 along the remaining wells. In this manner, six compounds could be tested in duplicate on a single plate with concentrations from […]. Plates were incubated at 37° C. for seven days, subjected to one cycle of freezing and thawing; aliquots from each of the eight wells of a given column were transferred to the first column of a fresh 96-well monolayer culture of HFF cells. Contents were mixed and serially diluted 1:3 across the remaining eleven columns of the secondary plate. Each column of the original primary plate was diluted across a separate plate in this manner. Cultures were incubated, plaques were enumerated, and titers calculated as described above.
as §2

Data set [5] in a line: Visual cytotoxicity in stationary HFF cells. The class given is cell-based. The settings on record: human; HFF cells, scored at time of HCMV plaque enumeration; read-out: Cytotoxicity visual (IC50). The method, then:
as §3, §2

For data set [6], the system named is HSV-1. Kind of data set: HSV-1 ELISA in BSC-1 cells. Type of data set: cell-based, herpes simplex virus 1. The conditions noted are these: Human alphaherpesvirus 1, quadruplicate wells, read-out: HSV-1 ELISA 50% Inhibitory Concentration (IC50). The procedure: An ELISA was employed (see Prichard, M. N.; Shipman, C., Jr. A Three Dimensional Model to Analyze Drug-Drug Interactions. Antiviral Res. 1990, 14, 181-206) to detect HSV-1. Ninety-six-well cluster dishes were planted with 10,000 BSC-1 cells per well in 200 μL per well of MEM(E) plus 10% calf serum. After overnight incubation at 37° C., selected drug concentrations in quadruplicate and HSV-1 at a concentration of 100 p.f.u./well were added. Following a 3-day incubation at 37° C., medium was removed, plates were blocked, rinsed, and horse radish peroxidase conjugated rabbit anti-HSV-1 antibody was added. Following removal of the antibody containing solution, plates were rinsed, and then developed by adding 150 μL per well of a solution of tetramethylbenzidine as substrate. The reaction was stopped with H2SO4 and absorbance was read at 450 and 570 nm. Drug effects were calculated as a percentage of the reduction in absorbance in the presence of each drug concentration compared to absorbance obtained with virus in the absence of drug.
as §2

Data set [7] concerns HSV-1. As to the kind of experiment: HSV-1 plaque assay (used for DHPG). The class given is cell-based, herpes simplex virus 1. The settings on record: Human alphaherpesvirus 1; plaque assay used for DHPG instead of ELISA (footnote b); read-out: HSV-1 plaque assay 50% Inhibitory Concentration (IC50). The procedure:
as §4, with “Briefly, HFF or BSC-1 cells were planted as described above in 96-well cluster dishes and incubated overnight at 37° C. The next day cultures were inoculated with HCMV or HSV-1 and serially diluted 1:3 across the remaining eleven columns of the 96-well plate. After virus adsorption the inoculum was replaced with fresh medium and cultures were incubated for seven days for HCMV, two or three days for HSV-1. Plaques were enumerated under 20-fold magnification in wells having the dilution which gave 5 to 20 plaques per well.” left out
Background: An ELISA detects its analyte on a solid surface through an enzyme-linked reagent.

Where [8] appears, read: Human betaherpesvirus 5, HFF, Table 3, same data as Table 2, read-out: HCMV Strain Towne plaque 50% Inhibitory Concentration (IC50).
Setting [9] is: Human betaherpesvirus 5, Table 2, HFF cells, duplicate, read-out: HCMV plaque 50% Inhibitory Concentration (IC50).
Setting [10] is: Human betaherpesvirus 5, HFF, Table 3, same data as Table 2, read-out: HCMV Strain Towne yield 90% Inhibitory Concentration (IC90).
Setting [11] is: Human betaherpesvirus 5, Table 2, HFF cells, duplicate, read-out: HCMV yield 90% Inhibitory Concentration (IC90).

Several values for one entry are separate records, joined by “and”; a condition that tells them apart may be missing. Identical values can stand only once. Like-named read-outs stand apart in the source and are kept apart here.

Turning to `OC[C@H]1O[C@@H](n2c(Br)nc3cc(Cl)c(Cl)cc32)[C@H](O)[C@@H]1O` [BDCRB, 2-bromo-5,6-dichloro-1-(β-D-ribofuranosyl)benzimidazole], the “inhibition of HCMV” value with HCMV [1] is listed as “significant inhibitors of HCMV”.
Compound `OC[C@@H]1O[C@@H](n2c(Br)nc3cc(Cl)c(Cl)cc32)[C@H](O)[C@@H]1O` [Compound 5a, 2-Bromo-5,6dichloro-1-(α-L-lyxofuranosyl)benzimidazole] gave a melting point of 178 to 179 °C. The compound also returned an IC50 with Hepatitis B Virus (HBV) (Hepatitis B virus) of 8.8 µM. Further, in the data set on Hepatitis B Virus (HBV), the IC50 was determined as 16 µM. The IC50 with HCMV Strain AD169 worked out at 0.8 µM. Also, the IC50 at 48 h in [2] was more than 100 µM. Moreover, in the data set with HCMV [3] (setting [8]), the IC50 came out at 2.8 µM. For the same compound, the IC50 in the data set on HCMV [3] (setting [9]) was determined as 2.8 µM. In addition, in the data set with HCMV [4] (setting [10]), the IC90 was 0.8 µM. In addition, in the data set with HCMV [4] (setting [11]), the IC90 came to 0.8 µM. For the same compound, the IC50 in [5] is more than 100 µM. The IC50 in the data set with HSV-1 [6] was more than 100 µM.
On to `CNc1nc2cc(Cl)c(Cl)cc2n1[C@@H]1O[C@@H](CO)[C@@H](O)[C@H]1O` [Compound 6a, 5,6-Dichloro-1-(α-L-lyxofuranosyl)-2-(methylamino)benzimidazole], for which the melting point was 126 to 128 °C and 131 to 132 °C. In data set [2], the IC50 at 48 h is more than 100 µM. Moreover, the IC50 with HCMV [3] (setting [9]) is more than 100 µM. Also, the IC50 in data set [5] is more than 100 µM. The IC50 in the data set with HSV-1 [6] is more than 100 µM.
`OC[C@@H]1O[C@@H](n2c(=S)[nH]c3cc(Cl)c(Cl)cc32)[C@H](O)[C@@H]1O` [Compound 9a, 5,6-Dichloro-1-(α-L-lyxofuranosyl)benzimidazol-2-thione] had a melting point of 234 to 236 °C. In data set [2], the IC50 at 48 h is more than 100 µM. Besides, the IC50 in the data set on HCMV [3] (setting [9]) is more than 100 µM. For the same compound, the IC90 in the data set with HCMV [4] (setting [11]) was more than 100 µM. In addition, the IC50 in data set [5] was more than 100 µM. In addition, in the data set on HSV-1 [6], the IC50 is more than 100 µM.
On to `OC[C@H]1O[C@@H](n2c(Cl)nc3cc(Cl)c(Cl)cc32)[C@H](O)[C@@H]1O` [TCRB, 2,5,6-trichloro-1-(β-D-ribofuranosyl)benzimidazole, reference compound], for which, in the data set on HCMV [1], the “inhibition of HCMV” value was “significant inhibitors of HCMV”. The IC50 was 1.8 µM in the data set on HCMV Strain AD169 and 2.9 µM with HCMV [3] (setting [8]). Further, in the data set on HCMV [4] (setting [10]), the IC90 amounted to 1.4 µM.
With `Nc1nc(O)c2ncn(COC(CO)CO)c2n1` [ganciclovir (DHPG), ganciclovir, reference compound], in [2], the IC50 at 48 h was more than 100 µM. Further, the values for the IC50 (in the data set on HSV-1 [7]; in the data set on HCMV [3] (setting [9]); in data set [5]) were 3.5 ± 2.1 µM, 7.4 ± 6.5 µM and more than 100 µM, respectively. Moreover, in the data set on HCMV [4] (setting [11]), the IC90 came out at 1.6 ± 1.2 µM.
